Measured values reported in patent US20040047863A1, “Combination therapy using a TNF binding protein for treating TNF-mediated diseases” (Amgen Inc., priority 1996, published 2004).

How the values were obtained:
adjuvant arthritic rats [1] = assay: Adjuvant-induced arthritis model, combination of c105 sTNFR-I dumbbell and methotrexate (Example 1); format: in vivo, rat
Method: An animal model of rheumatoid arthritis induced by an adjuvant was used to investigate the combination therapy of a TNF binding protein and methotrexate in male Lewis rats (3-7/group) weighing at least 200 g.
On day-0, all rats were injected with 100 μl of Freunds Complete Adjuvant (Sigma Chemical Co., St. Louis, Mo.) to which a synthetic adjuvant, N,N-dioctyldecyldecyl-N′, N-bis(2-hydroxy-ethyl) propanediamine, 50 mg/ml, was added. On days 0-14 methotrexate in 1% carboxymethylcellulose (Sigma) was orally administered daily (0.06 mg/kg) to two groups of rats. On days 8, 10, 12, and 14, E. coli-derived c105 sTNFR-I dimerized with PEG-20,000-bis-vinyl sulfone (c105 sTNFR-I dumbbell; prepared generally in accordance with the teachings of WO 95/34326) formulated in pharmaceutical composition (34 mM NaCl, 10 mM sodium phosphate, 4% sorbitol (w/v) in water; pH 6.5) was administered by subcutaneous (SC) injection (3 mg/kg) to one group of rats being treated with both Freunds Complete Adjuvant and methotrexate and to another group of rats being treated with Freunds Complete Adjuvant alone.
Body weights were taken on day 0 and every other day from day 9 to termination on day 15. Caliper measurements and clinical scoring were done on day 9 and every other day until termination. At this time animal's body, paw and spleen weights were determined.

adjuvant arthritic rats [2] = assay: Adjuvant-induced arthritis model, combination of sTNFR-II Fc and methotrexate (Example 2); format: in vivo, rat
Method: An animal model of rheumatoid arthritis induced by an adjuvant was used to investigate the combination therapy of a TNF binding protein and methotrexate in male Lewis rats (5-7/group) weighing at least 200 g.
On day-0, all rats were injected with 100 μl of Freunds Complete Adjuvant (Sigma Chemical Co., St. Louis, Mo.) to which a synthetic adjuvant, N,N-dioctyldecyldecyl-N′, N-bis(2-hydroxy-ethyl) propanediamine, 50 mg/ml, was added. On day 0-14 methotrexate in 1% carboxymethylcellulose (Sigma) was orally administered daily (0.06 mg/kg) to two groups of rats. On days 9, 11, and 13, CHO-derived sTNFR-II/hIgG1 fusion protein (sTNFR-II Fc; prepared generally in accordance with the teachings of EP 418 014) formulated in pharmaceutical composition (34 mM NaCl, 10 mM sodium phosphate, 4% sorbitol (w/v) in water; pH 6.5) was administered by subcutaneous infusion (18 mg/kg) to one group of rats being treated with both Freunds Complete Adjuvant and methotrexate and to another group of rats being treated with Freunds Complete Adjuvant alone.
Body weights were taken on day 0 and every other day from day 9 to termination on day 15. Caliper measurements and clinical scoring were done daily from day 9 until termination on day 15. At this time animal's body, paw and spleen weights were determined.

[3] = system: MRL-1pr/1pr autoimmune mice challenged with LPS/D-GalNH2; assay: LPS/D-Galactosamine induced lethality model (Example 3); format: in vivo, mouse; settings: N=6
Method: The combination immunotherapeutic effects of c105 STNFR-I dumbbell and fas fusion protein were assessed using a mouse model of D-Galactosamine (D-GalNH2) induced lethality. The D-galactosamine (D-GalNH2)/Lipopolysaccharide (LPS) model (Mountz et al., J. Immunology, 155:4829-4837). In this model, MRL-1pr/1pr autoimmune mice are administered D-GalNH2 with bacterial endotoxin (LPS), and lethality is observed through +96 hours post challenge.
After overnight fasting, 6-8 week old female MRL-1pr/1pr mice (Jackson Laboratory, Bar Harbor, Me.) (5/7/group) were cannulated with jugular catheters and allowed to recover for several days. They were then placed in infusion cages and acclimated for a week prior initiating saline infusion.
At hour-0, all mice were injected intraperitoneally with 31 micrograms of D-GalNH2 (Sigma) suspended in Hank's Balanced Salt Solution (Gibco BRL) (120 micrograms/ml); and lipopolysaccharide (LPS) from E. coli Serotype 0127:B8 (Sigma) in sterile, endotoxin-free phosphate buffered saline (PBS) (6 micrograms/mouse).
At 0-hour-+2 hours post-challenge, fas fusion protein formulated in a pharmaceutical composition (Phosphate buffered saline (Gibco BRL, Grand Island, N.Y.)) was administered intravenously in serial 2-fold dilutions (microgram/kg dosages) to two groups of mice. […]

[4] = final analysis (inhibition at termination, day 15), c105 sTNFR-I dumbbell 3 mg/kg SC, methotrexate 0.06 mg/kg oral daily
[5] = male Lewis rats, Freunds Complete Adjuvant, c105 sTNFR-I dumbbell 3 mg/kg SC days 8, 10, 12, 14, methotrexate 0.06 mg/kg oral daily days 0-14
[6] = male Lewis rats, Freunds Complete Adjuvant, c105 sTNFR-I dumbbell 3 mg/kg SC days 8, 10, 12, 14, methotrexate 0.06 mg/kg oral daily days 0-14, as reported with FIGS. 3 and 4
[7] = male Lewis rats, Freunds Complete Adjuvant, sTNFR-II Fc 18 mg/kg subcutaneous days 9, 11, 13, methotrexate 0.06 mg/kg oral daily days 0-14

Molecule | inhibition of body weight change (adjuvant arthritic rats [1]; [4]) [%] | inhibition of paw inflammation (terminal paw weights) (adjuvant arthritic rats [1]; [4]) [%] | inhibition of splenomegaly (terminal spleen weights) (adjuvant arthritic rats [1]; [4]) [%] | inhibition of paw swelling (area under the curve-AUC) (adjuvant arthritic rats [1]; [5]) | inhibition of body weight change (adjuvant arthritic rats [1]; [6]) | inhibition of splenomegaly / spleen weight (adjuvant arthritic rats [1]; [6]) | inhibition of paw inflammation (terminal paw weights) (adjuvant arthritic rats [2]; final analysis (inhibition at termination, day 15), sTNFR-II Fc 18 mg/kg, methotrexate 0.06 mg/kg oral daily) [%] | inhibition of body weight change (adjuvant arthritic rats [2]; [7]) [%] | inhibition of paw swelling (area under the curve—AUC) (adjuvant arthritic rats [2]; [7]) [%] | inhibition of splenomegaly / spleen weight (adjuvant arthritic rats [2]; [7]) [%] | survival ([3]; c105 sTNFR-I dumbbell 100 micrograms/kg I.V., time=−1 hour before challenge, P<0.01 vs saline control) [%] | protection ([3]; sub-optimal dose 25 micrograms/kg, through +96 hours after challenge) [%]
N-[4-[(2,4diamino-6-pteridinyl)methylamino]benzoyl]-L-glutamic acid [methotrexate] | 3 | 3.9 | 8.5 | 26% | 3% | no inhibition | 74 | 64 | 66 | 74 |  | 
c105 sTNFR-I dumbbell: E. coli-derived c105 sTNFR-I dimerized with PEG-20,000-bis-vinyl sulfone (protein, UniProt P19438 30-211, looked up, extracellular domain c105 truncation; PEG-20000-bis-vinyl sulfone dimer, E. coli-derived c105 sTNFR-I dimerized with PEG-20,000-bis-vinyl sulfone) extracellular domain: LVPHLGDREKRDSVCPQGKYIHPQNNSICCTKCHKGTYLYNDCPGPGQDTDCRECESGSFTASENHLRHCLSCSKCRKEMGQVEISSCTVDRDTVCGCRKNQYRHYWSENLFQCFNCSLCLNGTVHLSCQEKQNTVCTCHAGFFLRENECVSCSNCKKSLECTKLCLPQIENVKGTEDSGTT | 13.2 | 10.9 | 30.4 | about 42% | about 13.2% | no significant benefit |  |  |  |  | 100 | −35
